The test system of one series is RS4;11 cells. Put plainly: Inhibition of sCAR-T cell activity by free PNE peptide. The series is classed as cell-based. Conditions: excess soluble peptide with LCNT switch. An excerpt: The non-binding mutated version of the PNE (PNE-X; bar farthest to the right) was, again, used as a control. […] Alanine mutated free peptide (PepX) has no effect. Only the cognate free peptide epitope inhibits cytotoxicity (see FIGS. 26D-F). FIG. 26E-F show live cell imaging (Incucyte, Essen).
Specificity of sCAR-T cell activation is essential to switch-based control.
One of the great advantages of the sCART cell system is that the activity can be controlled. This can be achieved by either dose escalation of the switches or by stopping switch dosing. In the event that the cessation of switch dosing is not an acute enough response to halt sCART cell activity, immunological synapses are disrupted by the administration of free peptide.
Specificity of sCAR-T cell activation is a critical design consideration for switch-based control.

Series [1] has as its system Nalm-6^Luc/GFP cells. Put plainly: Nalm-6 Luc/GFP leukemia xenograft. The series is classed as in vivo.
In another series the test system is RS4;11 (CD19 positive). The series is classed as cell-based, human. How it is done:
Activity was assessed against NALM-6 (CD19^+), RS4;11 (CD19^+), or RPMI-8226 (CD19^−) (Table 2). The activity of the IgG (FcNull) switch was assessed against RS4;11 (CD19^+), or K562 (CD19^−) (Table 2). The activity of the C-terminal switch was assessed against RS4;11 (CD19^+), or K562 (CD19^−) (Table 4).
sCAR-T cells were co-cultured (96-well plate round bottom; 20-24h; 37° C.; 5% CO2) with RS4;11 (CD19^+) or K562 (CD19^−) cells at a ratio of 10 sCAR-T cells to 1 RS4;11/K562 cell (110,000 cells in total) in 100 uL of RPMI-1640 supplemented with 5% heat inactivated fetal calf serum (Thermo), 1% penicillin-streptomycin (Gibco), 1% L-Glutamine (Gibco), 1 mM sodium pyruvate (Gibco) and 1% non-essential amino acids (Gibco). After 24 hours, each plate was centrifuged at 400×g for 5 minutes at 4° C. To measure target cell lysis, the intracellular protein lactate dehydrogenase (LDH) was measured in the cytotoxicity assay supernatants from the co-cultured cells using the CytoTox 96® Non-Radioactive Cytotoxicity Assay kit (Promega). To measure the effector responses of the sCART cells in vitro, cytokine levels were measured in the cytotoxicity assay supernatants using the Cytometric Bead Array (CBA) Human Th1/Th2 Cytokine Kit II (BD). […]
The GCN4 CAR design was therefore modified to contain the CD8 hinge region (used in CART-19), which has an extracellular CAR domain of approximately 80 Å, and an IgG4 hinge with an extracellular CAR domain of approximately 15-30 Å. An additional construct was developed where a mutation was introduced into the IgG4 hinge that allows for spontaneous disulphide bridge formation between receptor molecules (IgG4m). […] Briefly, activated PBMC were transduced with lentivirus (SEQ ID: 1) containing the anti-PNE CAR construct (SEQ ID: 180) with the CD8 (SEQ ID: 68), IgG4 (SEQ ID: 70) and IgG4m (SEQ ID: 71) hinge domains.
Monovalent and bivalent combinations of these switches were expressed in mammalian protein expression systems (HEK293 or CHO cells) and purified using protein-G columns. Switches were used in cytotoxicity assays at a dose titration within the range of 10 nM to 0.0001 nM. The activity of each switch combination was tested in vitro in the General cytotoxicity assays where LDH release, cytokine production and sCART cell activation were compared (FIGS. 11A-11C).
CAR-T or target cells were incubated with 1 pM to […] of switch in FACS buffer (PBS, 1% FCS, 2 mM EDTA) for 30 minutes at 4° C. before being washed twice and then incubated with the PE-conjugated goat-anti-human kappa antibody (1:100). Cells were washed two times and analyzed using the Accuri flow cytometer (BD). CAR-T cell activity was determined using the CytoTox 96® Non-Radioactive Cytotoxicity Assay (Promega). CAR-T cells were incubated with target cells in the presence of switch for 20-24 hours at 37° C. in complete RPMI with 5% FCS. At the end of the assay, 30 μL of cell free supernatant was added to 30 μL of the LDH assay reagent in a 96-well plate and incubated for 30 minutes at room temperature in the dark; 30 μL of stop solution was added before the plate was read at OD495.

Series [2] deals with Nalm-6^Luc/GFP cells. Put plainly: Nalm-6 Luc/GFP leukemia xenograft. The series is classed as in vivo. Conditions: for tumor burden (IVIS): 0.5 mg/kg I.V. every other day for 10 days. Here is the method: NSG mice were inoculated with CD19^+ Nalm-6^GFP/Luc cells. Six days later, 40×10^6 sCAR-T cells were delivered IV and switch dosing commenced every other day at 0.5 mg/kg for 10 days. Tumor burden was followed by luminescence after injection of luciferin and imaged on an in vivo imaging system (IVIS; PerkinElmer, Waltham, Mass., USA).
Asterisks indicate significance from LCNT Fab group. Data are represented as means±SEM, and statistical significance was calculated using the 2-way ANOVA with Bonferroni's post-test (B & E; shown for final time-point only) or by one-tailed student's t-test (C & F) where *=p<0.05, **=p<0.01 and ***=p<0.001.
NSG mice were inoculated with Nalm-6^GFP/Luc as described in FIG. 28. […] A fourth group consisted of two cohorts (n=3) of mice injected I.V. with sCAR-T cells without (−) LCNT Fab switch. LCNT Fab dosing in the indicated group was carried out daily at 0.5 mg/kg after the initial T cell infusion. Luminescence was measured at 6 h and subsequently every 24 h as indicated. Cohorts were sacrificed for analysis immediately following IVIS imaging. […] Gray lines indicate tumor burden in PBS and sCAR-T cell—LCNT Fab controls. […] Data are represented as means±SEM, and statistical significance was calculated using the one-tailed student's t-test (C & D) where *=p<0.05, **=p<0.01 and ***=p<0.001.
NSG mice were inoculated with Nalm6^GFP/Luc and six days later engrafted with short-dimeric sCAR-T cells as described in FIG. 29. […] Dosing was carried out for 15 d starting at day 6 (corresponding with sCAR-T cell infusion) as indicated by gray shading. Control groups CART-19 and PBS received no switch. The NS group received sCAR-T cells but no switch. Open circles denote the death of individual mice without evidence of tumor burden and may reflect GVHD. Triangles in PBS, NS and q.a.d. group indicate death due to increasing tumor burden. […] (19) indicates CART-19. […] (19) indicates CART-19. […] Triangles indicate the death of individual mice with significant tumor burden. The single mouse death in the 0.05 mg/kg group occurred while tumor burden was decreasing. […] Statistical significance was calculated using the one-tailed student's t-test (B, C & E) where *=p<0.05, **=p<0.01 and ***=p<0.001.
The different sCAR designs were tested in a xenograft model harboring luciferized NALM-6 (CD19+, CD80−, CD86−) cells. 1 mg/kg monovalent switch “A” was administered along with sCAR cells. […] Optimized hinge improved response. Short hinge CARs have faster clearance. Short, dimeric hinge CARs have improved persistence. Tumor burden was visualized with IVIS imaging. Experiments are repeated with a humanized scFv and bivalent switches.
Activity of the switchable CAR-T cell platform in vivo was evaluated via tumor regression in a Nalm-6^Luc/GFP leukemia xenograft model in immunodeficient NOD scid gamma (NSG) mice. These mice without treatment succumb to disease within 21 days. The impact of CAR hinge design on in vivo efficacy was determined using mice inoculated with Nalm-6^Luc/GFP, followed by I.V. injection of long, short, or short-dimeric sCAR-T cells 6 days later. The LCNT Fab was dosed I.V. (0.5 mg/kg) every other day for 10 days and tumor regression was followed by in vivo imaging (IVIS) of the luciferase signal from Nalm-6^Luc/GFP cells (FIG. 29A).
The effect of switch grafting position on the control of tumor burden was determined. As with the previous model, short-dimeric CAR-T cells were injected 6 days after tumor inoculation and mice were treated every other day (starting at day 6) with 0.5 mg/kg LCNT, HCNT, NTBV, LCC1, or HCCT Fab switches (FIG. 29D).
To determine the proliferation and localization of sCAR-T cell cytotoxicity during this time interval, mice were sorted into 5 cohorts per treatment regimen and analyzed at 8, 24, 48, 72, and 96 h after treatment with short-dimeric sCAR-T cells+LCNT Fab switch or with conventional CART-19 and no switch. […]

Another series has as its target GCN4 epitope (7P14P) (Saccharomyces cerevisiae, UniProt P03069). Conditions: GCN4 epitope (7P14P) NYHLENEVARLKKL; read-out: dissociation constant (Kd); cited from earlier work.
[3] abbreviates: retreatment 0.5 mg/kg for 10 days.

The text below walks through data of US11091546B2, “Optimized PNE-based chimeric receptor T cell switches and uses thereof” (The Scripps Research Institute, priority 2015, dated 2021).

Bounds are passed on as bounds.

Take “NYHLENEVARLKKL (CAR binding region - yeast transcription factor GCN4) [PNE]”: the “effect of free peptide on sCAR-T cell activity” value in the series with RS4;11 cells is listed as “fully inhibited”.

With “anti-CD19 Fab LCNT: FMC63 anti-CD19 Fab, GCN4 peptide on N-terminus of light chain (SEQ ID 36 & 29)”, in the series with Nalm-6^Luc/GFP cells [1] (0.05 mg/kg every day for 10 d), the “day on which tumor burden reached the limit of detection” value is at most 16 days. For the same molecule, the “day of tumor relapse” value in the series on Nalm-6^Luc/GFP cells [1] (after 0.05 mg/kg every day for 10 d) was determined as 30 days. In the series on RS4;11 (CD19 positive), the EC50 amounted to 0.9 pM and the “increase in potency of cytotoxicity” value was 2.8 fold. Besides, the “increase in maximum target cell lysis” value in the series on RS4;11 (CD19 positive) (short-dimeric sCAR vs CD8-based long hinge) is above 80%. The “serum IL-2, INFγ, TNFα at 24 h vs CART-19” value in the series on Nalm-6^Luc/GFP cells [2] (0.05 mg/kg every day) is given as “significantly lower than CART-19”. Also, the “duration of sustained tumor regression after dosing had stopped” value in the series with Nalm-6^Luc/GFP cells [2] (0.5 mg/kg every day or every other day for 15 days) is recorded as above 100 days. The “T cell phenotype in peripheral blood (CD45RA, CD62L)” value in the series on Nalm-6^Luc/GFP cells [2] (0.05 and 0.5 mg/kg, vs […] group) is “significantly larger populations of CD45RA^−CD62L^+ central memory cells”. The “T cell counts in peripheral blood” value with Nalm-6^Luc/GFP cells [2] (day 17, short-dimeric sCAR-T cells, 0.5 mg/kg every other day) is “greatest T cell expansion”. In the series on Nalm-6^Luc/GFP cells [2] (long hinge (CD8) sCAR-T cells), the “tumor burden (IVIS)” value is listed as “minimal impact on disease”. Further, in the series on Nalm-6^Luc/GFP cells [2] (setting [3]), the “time to decrease tumor signal to levels equivalent to CART-19” value is listed as at most 5 days and the “tumor-free time after final dose of second dosing period” value is on record as above 35 days. Moreover, the “time of peak human IL-2 in peripheral blood” value in the series with Nalm-6^Luc/GFP cells [2] (sCAR-T + daily 0.5 mg/kg LCNT Fab, or CART-19 without switch) is listed as 48 h. The “tumor burden (IVIS)” value with Nalm-6^Luc/GFP cells [2] (short (IgG4) sCAR-T cells) was “significant decrease in tumor burden”. The “tumor burden (IVIS)” value in the series with Nalm-6^Luc/GFP cells [2] (short-dimeric (IgG4m) sCAR-T cells) is “significant decrease in tumor burden”. For the same molecule, in the series on Nalm-6^Luc/GFP cells [2] (short-dimeric sCAR-T cells, 0.5 mg/kg every other day from day 6), the “tumor burden (IVIS), switch graft position comparison” value was “greatest reduction in tumor burden”. In addition, in the series on Nalm-6^Luc/GFP cells [2] (short-dimeric sCAR-T cells, daily 0.5 mg/kg), the “time to limit of luminescence detection” value is at most 96 h.

B1: 52SR4: high affinity anti-GCN4 (7P14P) scFv used as sCAR extracellular domain (protein)
scFv: DAVVTQESALTSSPGETVTLTCRSSTGAVTTSNYASWVQEKPDHLFTGLIGGTNNRAPGVPARFSGSLIGDKAALTITGAQTEDEAIYFCVLWYSDHWVFGGGTKLTVLGGGGGSGGGGSGGGGSGGGGSDVQLQESGPGLVAPSQSLSITCTVSGFLLTDYGVNWVRQSPGKGLEWLGVIWGDGITDYNSALKSRLSVTKDNSKSQVFLKMNSLQSGDSARYYCVTGLFDYWGQGTTLTVSS
For the molecule B1, the Kd (usually a measure of binding affinity in units of concentration) in the series with GCN4 epitope (7P14P) was 5.2 pM.
